The numbers were not newly measured in article PMC6338644 (The FASEB Journal, 2018), which cites them from elsewhere.

This series deals with db/db mice. To be noted: cited from earlier work.

For `C[C@H](NC(=O)c1sccc1OCc1ccc(Cl)cc1)c1ccccc1` [AS1949490], the “PCK1 expression in db/db mice” value is “reduce”. For the same compound, for the setting “short-term treatment”, the “blood glucose in db/db mice” value is reported as “reduced” and the “insulin sensitivity in db/db mice” value is reported as “improved”.
